# From patent US20160271188A1, “PROBIOTIC AND PREBIOTIC COMPOSITIONS, AND METHODS OF USE THEREOF FOR TREATMENT OF GASTROINTESTINAL DISORDERS” (Epiva Biosciences, Inc., priority 2014, published 2016)
# “Also recorded” adds a separate entry of the source.
# Assays:
# [1] = Normal human volunteer study of D-xylose: serum and urine pharmacokinetics; format: in vivo
# From the text: Blood and urine were collected at pre-specified pre- and post-ingestion time points to measure D-xylose levels and to characterize the systemic absorption profiles of D-xylose. Phoenix® WinNonLin®, Version 6.2.1, was used for PK analyses. Serum D-xylose concentrations were summarized by cohort using nominal sample times according to actual amount received using summary statistics (n, coefficient of variation [CV], mean, standard deviation [SD], median, minimum, and maximum). Evidence for the occurrence of steady-state was assessed graphically by comparing the time course of either trough or 2-hour post-ingestion serum concentrations of D-xylose as different levels of D-xylose. Accumulation was assessed by comparing the 2-hour post-first-ingestion serum levels with those observed at Week 2 (Day 15) and Week 4 (Day 28). […] Urine PK parameters for D-xylose levels included Ae(0-t) (cumulative amount of sweetener recovered in urine) and percent sweetener amount excreted over a 5-hour period.
# gut microbiome [2] = assay: Normal human volunteer study of D-xylose: changes in the gut microbiome (stool V3-V4 16S sequencing); format: in vivo; settings: for gut microbiome community composition: over time on study; for alpha diversity of the gut microbiome: regardless of ingestion amount
# gut microbiome [3] = settings: mouse, in vivo
# [4] = tested on: healthy, adult volunteers; assay: Normal human volunteer study of D-xylose: CRP, serum cytokines, T-cell markers; format: in vivo
# From the text: Blood was collected at pre-specified pre- and post-ingestion time points to evaluate C-reactive protein (CRP), serum cytokines (tumor necrosis factor alpha [TNF-α], interleukin [IL]-2, IL-6, interferon gamma [IFN-γ], and IL-10), and T-cell markers CD3, CD4, CD8, CD25, and FOXP3. Plasma was also stored and may be tested for biomarkers and/or metabolic markers for up to 7 years.
# Summary statistics (n, mean, standard deviation, median, minimum, and maximum) were presented for serum concentrations of CRP, flow cytometry T-cell markers (CD3, CD4, CD8, CD25, and FOXP3), and cytokines (TNF-α, IL-2, IL-6, IFN-γ, and IL-10) as per their nominal time points.
# [5] = tested on: healthy, adult volunteers; settings: human, in vivo
# Procedure: D-xylose is a carbon source generally preferred by anaerobic bacteria. […] A parallel, double-blind, 5 cohort escalation food safety study was conducted to examine D-xylose in normal human volunteers. The study was a double-blind, single-center, parallel group study designed to evaluate the tolerability and potential microbiome changes induced by ingestion of D-xylose at 5 different amounts in healthy, adult volunteers enrolled at 1 study center in the United States (US).
# Subjects were screened for eligibility within 21 days prior to the first planned ingestion of study sweetener on Day 1 (Baseline). […]
# Subjects returned to the study center weekly on Days 8, 15, 22, and 28 for ingestion, tolerability, and compliance evaluations. Safety was evaluated on a continual basis through adverse events (AE) monitoring, clinical laboratory measurements, vital sign monitoring, physical examinations, electrocardiograms (ECGs), telephone follow-up, and electronic subject ingestion diaries. Stool was collected pre-ingestion and at pre-specified time points, and post-ingestion samples were evaluated for changes in the gut microbiome compared with Baseline for all subjects. […]
# Safety was evaluated on a continual basis through AE monitoring, clinical laboratory measurements, vital sign monitoring, physical examinations, ECGs, telephone follow-up, and electronic subject ingestion diaries. […]
# microbiome of the vagina = settings: mouse, in vivo
# From the text: (§1) The trillions of organisms forming the microbiome function as an organ system interconnected throughout the body. The possibility that modification of the microbiome in a given physical location may influence the microbiome at other sites in the body (distal augmentation) was investigated. Seven week old C57Bl/6 female mice were acclimatized for 7 days prior to the start of the study by daily handling and shuffling between cages. All mice were housed at three mice per cage in individually vented cages (Thoren, Hazleton, Pa.). At day 0, baseline fresh fecal pellets, and vaginal lavages with 100 μL of sterile double-distilled water were collected and immediately frozen at −80° C. for microbiome analysis. […] Water alone is not expected to influence the microbiome and acted as a negative control. […] The impact of oral vancomycin is therefore expected to be limited to the gastrointestinal tract such that microbiome changes elsewhere in the body (e.g. vagina) would be attributable to distal augmentation. At day 6, fresh fecal pellets and vaginal lavages with 100 μL of sterile double-distilled water were collected and immediately stored at −80° C. for microbiome analysis.
# (§2) Isolation and sequencing of microbial DNA from the stool and vaginal samples was performed by DNA Genotek (Ottawa, ON, Canada). The V3-V4 region of the 16S ribosomal subunit was amplified with custom PCR primers and sequenced on an Illumina MiSeq to a minimum acceptable read depth of 25,000 sequences per sample. […] These OTU's were then assigned a curated taxonomic label based on the seven level SILVA taxonomy.
# microbiome of the gut = settings: mouse, in vivo
# From the text: as §1, §2
# [6] = in vivo, po; cited from earlier work
# [7] = tested on: human peripheral blood mononuclear cells (PBMCs); assay: Cytokine release by human PBMCs incubated with commensal bacteria alone or with E. faecalis (Luminex); format: cell-based; settings: for overall anti-inflammatory cytokine profile for a Th-1-driven condition such as GVHD: alone and with EPV 8
# Procedure: An in vitro system was developed to efficiently test the inflammatory and immunomodulatory properties of different human commensal bacteria on human peripheral blood mononuclear cells (PBMCs). Experiments were carried out with 21 bacterial candidates to profile their anti-inflammatory properties against human PBMCs. The innate properties of bacteria alone on human PBMCs were tested as well as their ability to counteract the pro-inflammatory activity of Enterococcus feacalis.
# Human PBMCs were isolated from fresh blood by density-gradient centrifugation using Ficoll (1-4). […] The results are presented in FIGS. 2-5 for all time points. […] The 24 h results are shown as a composite in FIG. 6 and with statistical analysis on individual cytokines in FIGS. 7-10. The results represent the properties of each bacterial species against human PBMCs and their ability to counteract inflammatory stimulation with E. faecalis in vitro.
# tumors = settings: oral administration; Sivan et al., Vetizou et al.; cited from earlier work
compound,measurement,setting,value
O=C[C@H](O)[C@@H](O)[C@H](O)CO [D-xylose],ingested amount recovered in urine within 5 hours post-ingestion,"[1]; 1 g TID, Days 1, 15 and 28",approximately 40%
same,serum D-xylose concentrations vs ingestion amount,[1]; 1 to 15 g TID,increased linearly with increasing ingestion amounts
same,accumulation ratio,"[1]; Day 15, 15 mg TID cohort",approximately 1.9 fold
same,accumulation of serum D-xylose,"[1]; Day 15, 1 g to 12.5 g TID",Little to no accumulation
same,accumulation ratio,"[1]; Day 28, 15 g TID",1.68
same,Chao diversity index (community richness),gut microbiome [2]; over time,overall decrease in the Chao diversity index over time
same,gut microbiome community composition,gut microbiome [2],no significant changes in community composition
same,gut microbiome community composition,gut microbiome [2]; listed as xylose,exerts subtle changes in the gut microbiome
same,alpha diversity of the gut microbiome,gut microbiome [2]; over time,no apparent significant impact on the intra-sample alpha diversity
same,alpha diversity of the gut microbiome,"gut microbiome [2]; over time, listed as xylose",no major shifts in the microbiome alpha diversity
same,shifts in the gut microbiome,gut microbiome [3],did not cause major shifts in the gut microbiome but showed some differences at the family level
same,serum interferon gamma over time,[4]; 2 g and 15 g cohorts,trend for reduced levels of serum interferon gamma over time
same,subjects with normal serum CRP at Baseline and at least 1 post-ingestion CRP value >2.9 mg/L,[4]; all cohorts,8.3%
same,total T-cells and T-cell subsets over time,[4]; any ingestion amount,No consistent or clinically meaningful changes over time
same,"serum cytokines (TNF-α, IL-2, IL-6, IFN-γ, IL-10) over time","[4]; most data points BLQ, any ingestion amount",did not indicate any consistent or clinically meaningful changes over time
same,"SAEs, severe AEs, deaths",[5],"No SAEs, severe AEs, or subject deaths"
same,subjects who experienced at least 1 AE,[5]; 28 days,38.9%
CN[C@H](CC(C)C)C(=O)N[C@H]1C(=O)N[C@@H](CC(N)=O)C(=O)N[C@H]2C(=O)N[C@H]3C(=O)N[C@H](C(=O)N[C@H](C(=O)O)c4cc(O)cc(O)c4-c4cc3ccc4O)[C@H](O)c3ccc(c(Cl)c3)Oc3cc2cc(c3O[C@@H]2O[C@H](CO)[C@@H](O)[C@H](O)[C@H]2O[C@H]2C[C@](C)(N)[C@H](O)[C@H](C)O2)Oc2ccc(cc2Cl)[C@H]1O [vancomycin],median abundance of bacterial species in vaginal samples at day 6 that were not present at day 0,microbiome of the vagina,approximately 0.00002%
same,day 0 to day 6 pattern in vaginal samples (PCA),microbiome of the vagina; po,showed an overall difference
same,impact on the microbiome of the gut (PCA at family level),microbiome of the gut,strong impact on the microbiome of the gut
same,absorption from the gut,[6],poorly absorbed from the gut
B. luti [EPV3],intrinsic inflammatory activity (induction of pro-inflammatory cytokines) compared to EPV 8,[7],relatively low intrinsic inflammatory activity compared to EPV 8
same,overall anti-inflammatory cytokine profile for a Th-1-driven condition such as GVHD,[7],significantly desirable anti-inflammatory profile; also recorded: capable of inducing a desirable anti-inflammatory cytokine profile
same,"ability to reduce induction of pro-inflammatory cytokines by EPV 8 (IL-6, MCP-1, IL-12p70, IFNγ)",[7]; combination with EPV 8,able to reduce the induction of pro-inflammatory cytokines by EPV 8
B. wexlerae [EPV5],overall anti-inflammatory cytokine profile for a Th-1-driven condition such as GVHD,[7],suboptimal anti-inflammatory profile for GVHD; also recorded: induces a suboptimal profile for GVHD
Bacteroides,responsiveness to checkpoint inhibitor therapy in cancer,tumors,increases the responsiveness to checkpoint inhibitor therapy
Bifidobacterium,responsiveness to checkpoint inhibitor therapy in cancer,tumors,increases the responsiveness to checkpoint inhibitor therapy
Lactobacillus,responsiveness to checkpoint inhibitor therapy in cancer,tumors,not
